We go through 17 molecules from US20250270191A1, “QUINOLONE BCL6 BIFUNCTIONAL DEGRADERS” (Treeline Biosciences, Inc., priority 2022, published 2025).

Molecules are shown by their SMILES.

In this experiment the target is T1, Human BCL6 protein (N-terminal HiBiT tagged BCL6 in HT1080 cells) (Homo sapiens, UniProt P41182+Q96SW2).
T1 construct: Human BCL6 protein coding open reading frame; expressed in transfected cells; host or cells: HT1080 (ATCC CCL-121), stably transduced with lentivirus pLV-UBC-N-HiBiT-BCL6-PGK-puro
Nature of the experiment: HiBiT based BCL6 degradation assay. It is filed as cell-based. The settings on record: HT1080 cells expressing N-terminal HiBiT tagged BCL6; 5 hours incubation; BCL6 degradation normalized with DMSO control. From the text: Human BCL6 protein coding open reading frame fused with N-terminal HiBiT coding sequence was synthesized from Integrated DNA Technologies (IDT). Next, the N-HiBiT-BCL6 sequence was cloned into pLV-UBC-PGK-Puro, a lentivirus plasmid purchased from Vectorbuilder, to generate pLV-UBC-N-HiBiT-BCL6-PGK-puro. Lentiviral particles were generated from Lenti-X™ 293T cells (Clontech) by co-transfection of pLV-UBC-N-HiBiT-BCL6-PGK-puro plasmids and lentiviral packaging plasmid mix (Cellecta). HT1080 [HT1080] (ATCC CCL-121) cells were infected with the lentivirus, and HT1080 cells stably integrated with the lentiviral vectors were established by incubation with 1 μg/mL puromycin (Thermofisher).
HT1080 cells expressing N-terminal HiBiT tagged BCL6 were dispensed into a 384-well plate pre-spotted with compounds at varying concentrations. Five thousand cells were seeded into each well in 40 μL of RPMI 1640 media plus 10% Fetal Bovine Serum (10082-147, Thermofisher). After 5 hours of incubation at 37° C. with 5% CO2, 30 μL of the NANO-GLO® HiBiT Lytic Detection System working solution (Promega) was added to each well and incubated at room temperature for 15 min. After incubation, luminescence was read on a PHERAstar FSX Plate Reader (BMG). BCL6 degradation at each indicated concentration was normalized with DMSO control. The BCL6 degradation curves were plotted using a four-parameter logistic model.
(In general: The HiBiT peptide binds its large partner to form an active luciferase.)
Regarding `CNC(=O)COc1cc2cc(Nc3nc(N4CCC[C@@H](CCNc5cccc6c(C7CCC(=O)NC7=O)nn(C)c56)C4)ncc3Cl)ccc2n(C)c1=O` (stereo in doubt) [Compound 294a, rel-2-((6-((5-chloro-2-((3S)-3-(2-((3-(2,6-dioxopiperidin-3-yl)-1-methyl-1H-indazol-7-yl)amino)ethyl)piperidin-1-yl)pyrimidin-4-yl)amino)-1-methyl-2-oxo-1,2-dihydroquinolin-3-yl)oxy)-N-methylacetamide], the “Ymin (5 hr)” value is given as “++ (50% < Ymin ≤ 70%)”.
Consider `CNC(=O)COc1cc2cc(Nc3nc(NC[C@H]4CC[C@@H](CNc5cccc6c(C7CCC(=O)NC7=O)nn(C)c56)CC4)ncc3Cl)ccc2n(C)c1=O` (some centres unmarked) [Compound 297a, 2-((6-((5-chloro-2-((((1s,4s)-4-(((3-(2,6-dioxopiperidin-3-yl)-1-methyl-1H-indazol-7-yl)amino)methyl)cyclohexyl)methyl)amino)pyrimidin-4-yl)amino)-1-methyl-2-oxo-1,2-dihydroquinolin-3-yl)oxy)-N-methylacetamide], for which the “Ymin (5 hr)” value is “++ (50% < Ymin ≤ 70%)”.
Under `CNC(=O)COc1cc2cc(Nc3nc(N4CCC5(CCC(Nc6cccc7c(C8CCC(=O)NC8=O)nn(C)c67)CC5)C4)ncc3Cl)ccc2n(C)c1=O` (centres unmarked) [Compound 344, 2-((6-((5-chloro-2-(8-((3-(2,6-dioxopiperidin-3-yl)-1-methyl-1H-indazol-7-yl)amino)-2-azaspiro[4.5]decan-2-yl)pyrimidin-4-yl)amino)-1-methyl-2-oxo-1,2-dihydroquinolin-3-yl)oxy)-N-methylacetamide] stands “++ (50% < Ymin ≤ 70%)”; under `CNC(=O)COc1cc2cc(Nc3nc(N4CCC[C@H](CNc5cccc(C6CCC(=O)NC6=O)c5)C4)ncc3Cl)ccc2n(C)c1=O` (stereo partly drawn) [Compound 275a, 2-((6-((5-chloro-2-((3R)-3-(((3-(2,6-dioxopiperidin-3-yl)phenyl)amino)methyl)piperidin-1-yl)pyrimidin-4-yl)amino)-1-methyl-2-oxo-1,2-dihydroquinolin-3-yl)oxy)-N-methylacetamide], “+ (Ymin > 70%)”.
As for `CNC(=O)COc1cc2cc(Nc3nc(N4CCC5CN(c6cccc7c(C8CCC(=O)NC8=O)nn(C)c67)CC5C4)ncc3Cl)ccc2n(C)c1=O` (centres unmarked) [Compound 326, 2-((6-((5-chloro-2-(2-(3-(2,6-dioxopiperidin-3-yl)-1-methyl-1H-indazol-7-yl)octahydro-5H-pyrrolo[3,4-c]pyridin-5-yl)pyrimidin-4-yl)amino)-1-methyl-2-oxo-1,2-dihydroquinolin-3-yl)oxy)-N-methylacetamide], the “Ymin (5 hr)” value is “+++ (25% < Ymin ≤ 50%)”.
For `CNC(=O)COc1cc2cc(Nc3nc(N4CCC(CC5CN(c6cccc7c(C8CCC(=O)NC8=O)nn(C)c67)C5)CC4)ncc3Cl)ccc2n(C)c1=O` (centres unmarked) [Compound 310, 2-((6-((5-chloro-2-(4-((1-(3-(2,6-dioxopiperidin-3-yl)-1-methyl-1H-indazol-7-yl)azetidin-3-yl)methyl)piperidin-1-yl)pyrimidin-4-yl)amino)-1-methyl-2-oxo-1,2-dihydroquinolin-3-yl)oxy)-N-methylacetamide] the value was “+++ (25% < Ymin ≤ 50%)”; for `CNC(=O)COc1cc2cc(Nc3nc(NC[C@H]4CC[C@H](CNc5ccc6c(C7CCC(=O)NC7=O)nn(C)c6c5)CC4)ncc3Cl)ccc2n(C)c1=O` (some centres unmarked) [Compound 293b, 2-((6-((5-chloro-2-((((1r,4r)-4-(((3-(2,6-dioxopiperidin-3-yl)-1-methyl-1H-indazol-6-yl)amino)methyl)cyclohexyl)methyl)amino)pyrimidin-4-yl)amino)-1-methyl-2-oxo-1,2-dihydroquinolin-3-yl)oxy)-N-methylacetamide], “++ (50% < Ymin ≤ 70%)”.
With `CNC(=O)COc1cc2cc(Nc3nc(N4CCN(C5CN(c6cccc7c(C8CCC(=O)NC8=O)nn(C)c67)C5)CC4)ncc3Cl)ccc2n(C)c1=O` (centres unmarked) [Compound 283, 2-((6-((5-chloro-2-(4-(1-(3-(2,6-dioxopiperidin-3-yl)-1-methyl-1H-indazol-7-yl)azetidin-3-yl)piperazin-1-yl)pyrimidin-4-yl)amino)-1-methyl-2-oxo-1,2-dihydroquinolin-3-yl)oxy)-N-methylacetamide], the “Ymin (5 hr)” value is “+++ (25% < Ymin ≤ 50%)”.
With `CNC(=O)COc1cc2cc(Nc3nc(NCc4ccc(CNc5cccc6c(C7CCC(=O)NC7=O)nn(C)c56)cc4)ncc3Cl)ccc2n(C)c1=O` (centres unmarked) [Compound 318, 2-((6-((5-chloro-2-((4-(((3-(2,6-dioxopiperidin-3-yl)-1-methyl-1H-indazol-7-yl)amino)methyl)benzyl)amino)pyrimidin-4-yl)amino)-1-methyl-2-oxo-1,2-dihydroquinolin-3-yl)oxy)-N-methylacetamide], the “Ymin (5 hr)” value was “++ (50% < Ymin ≤ 70%)”.
For `CNC(=O)COc1cc2cc(Nc3nc(N4CCN(C[C@H]5CCN(c6ccc7c(C8CCC(=O)NC8=O)nn(C)c7c6)C5)CC4)ncc3Cl)ccc2n(C)c1=O` (stereo partly drawn) [Compound 306a, 2-((6-((5-chloro-2-(4-(((3R)-1-(3-(2,6-dioxopiperidin-3-yl)-1-methyl-1H-indazol-6-yl)pyrrolidin-3-yl)methyl)piperazin-1-yl)pyrimidin-4-yl)amino)-1-methyl-2-oxo-1,2-dihydroquinolin-3-yl)oxy)-N-methylacetamide], the “Ymin (5 hr)” value is given as “+++ (25% < Ymin ≤ 50%)”.
Consider `CNC(=O)COc1cc2cc(Nc3nc(N4CCC(C5CN(c6cccc7c(C8CCC(=O)NC8=O)nn(C)c67)C5)CC4)ncc3Cl)ccc2n(C)c1=O` (centres unmarked) [Compound 286, 2-((6-((5-chloro-2-(4-(1-(3-(2,6-dioxopiperidin-3-yl)-1-methyl-1H-indazol-7-yl)azetidin-3-yl)piperidin-1-yl)pyrimidin-4-yl)amino)-1-methyl-2-oxo-1,2-dihydroquinolin-3-yl)oxy)-N-methylacetamide], for which the “Ymin (5 hr)” value is “+++ (25% < Ymin ≤ 50%)”.
Consider `CNC(=O)COc1cc2cc(Nc3nc(N4CC5CCC(Nc6ccc7c(C8CCC(=O)NC8=O)nn(C)c7c6)CC5C4)ncc3Cl)ccc2n(C)c1=O` (centres unmarked) [Compound 338, 2-((6-((5-chloro-2-(5-((3-(2,6-dioxopiperidin-3-yl)-1-methyl-1H-indazol-6-yl)amino)octahydro-2H-isoindol-2-yl)pyrimidin-4-yl)amino)-1-methyl-2-oxo-1,2-dihydroquinolin-3-yl)oxy)-N-methylacetamide], for which the “Ymin (5 hr)” value was “++ (50% < Ymin ≤ 70%)”.
`CNC(=O)COc1cc2cc(Nc3nc(N4CCN(CC5CCN(c6cccc7c(C8CCC(=O)NC8=O)nn(C)c67)CC5)CC4)ncc3Cl)ccc2n(C(C)C)c1=O` (centres unmarked) [Compound 107, 2-((6-((5-chloro-2-(4-((1-(3-(2,6-dioxopiperidin-3-yl)-1-methyl-1H-indazol-7-yl)piperidin-4-yl)methyl)piperazin-1-yl)pyrimidin-4-yl)amino)-1-isopropyl-2-oxo-1,2-dihydroquinolin-3-yl)oxy)-N-methylacetamide]: the “Ymin (5 hr)” value is reported as “++++ (Ymin ≤ 25%)”.
With `CNC(=O)COc1cc2cc(Nc3nc(NC[C@H]4CC[C@H](Nc5cccc6c(C7CCC(=O)NC7=O)nn(C)c56)CC4)ncc3Cl)ccc2n(C)c1=O` (some centres unmarked) [Compound 304b, 2-((6-((5-chloro-2-((((1r,4r)-4-((3-(2,6-dioxopiperidin-3-yl)-1-methyl-1H-indazol-7-yl)amino)cyclohexyl)methyl)amino)pyrimidin-4-yl)amino)-1-methyl-2-oxo-1,2-dihydroquinolin-3-yl)oxy)-N-methylacetamide], the “Ymin (5 hr)” value was “++ (50% < Ymin ≤ 70%)”.
As to `CNC(=O)COc1cc2cc(Nc3nc(N4CCC5(CCC(Nc6ccc7c(C8CCC(=O)NC8=O)nn(C)c7c6)CC5)C4)ncc3Cl)ccc2n(C)c1=O` (centres unmarked) [Compound 343, 2-((6-((5-chloro-2-(8-((3-(2,6-dioxopiperidin-3-yl)-1-methyl-1H-indazol-6-yl)amino)-2-azaspiro[4.5]decan-2-yl)pyrimidin-4-yl)amino)-1-methyl-2-oxo-1,2-dihydroquinolin-3-yl)oxy)-N-methylacetamide], the “Ymin (5 hr)” value is recorded as “+++ (25% < Ymin ≤ 50%)”.
Regarding `CNC(=O)COc1cc2cc(Nc3nc(N4CCC[C@H](COc5cccc6c(C7CCC(=O)NC7=O)nn(C)c56)C4)ncc3Cl)ccc2n(C)c1=O` (stereo partly drawn) [Compound 301a, 2-((6-((5-chloro-2-((3S)-3-(((3-(2,6-dioxopiperidin-3-yl)-1-methyl-1H-indazol-7-yl)oxy)methyl)piperidin-1-yl)pyrimidin-4-yl)amino)-1-methyl-2-oxo-1,2-dihydroquinolin-3-yl)oxy)-N-methylacetamide], the “Ymin (5 hr)” value was “++ (50% < Ymin ≤ 70%)”.
`CNC(=O)COc1cc2cc(Nc3nc(N4CCN([C@@H](C)C5CCN(c6cccc7c(C8CCC(=O)NC8=O)nn(C)c67)CC5)CC4)ncc3Cl)ccc2n(C)c1=O` (single isomer, unassigned) [Compound 307a]: the “Ymin (5 hr)” value is reported as “++++ (Ymin ≤ 25%)”.
